# Several values for one entry are separate records, joined by “and”; a condition that tells them apart may be missing. Equal values may be shown once.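 A five-concentration, 48-hour dose response in 96-well plates underlies each endpoint, interpolated linearly between surrounding concentrations. The concentration for 50% growth inhibition is given as GI50. At the TGI there is no net growth.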
# Legend:
# Assay in all cases: DTP human tumour cell line panel, 48 h
# DU-145 prostate = tested on: DU-145 prostate
# HOP-62 NSCLC = tested on: HOP-62 NSCLC
# HT29 colon = tested on: HT29 colon
# KM12 colon = tested on: KM12 colon
# NCI/ADR-RES ovarian = tested on: NCI/ADR-RES ovarian
# SF-539 CNS = tested on: SF-539 CNS
# SK-MEL-2 melanoma = tested on: SK-MEL-2 melanoma
# SW-620 colon = tested on: SW-620 colon
# T-47D breast = tested on: T-47D breast
# U251 CNS = tested on: U251 CNS
Compound,GI50 (DU-145 prostate),TGI (DU-145 prostate),GI50 (HOP-62 NSCLC) [µM],TGI (HOP-62 NSCLC) [µM],GI50 (HT29 colon),GI50 (KM12 colon),TGI (KM12 colon),GI50 (NCI/ADR-RES ovarian),TGI (NCI/ADR-RES ovarian),GI50 (SF-539 CNS),TGI (SF-539 CNS),GI50 (SK-MEL-2 melanoma),TGI (SK-MEL-2 melanoma),GI50 (SW-620 colon),GI50 (T-47D breast),TGI (T-47D breast),GI50 (U251 CNS),TGI (U251 CNS),TGI (HT29 colon) [µM],TGI (SW-620 colon) [µM]
COc1ccc2c(c1)nnn1c3ncccc3c(N=O)c21,1.82 µM and 2.38 µM,13 µM and 8.09 µM,7.51,21.5,0.622 µM and 1.2 µM,1.03 µM and 3.02 µM,6.91 µM and 13.5 µM,1.42 µM and 1.28 µM,10.6 µM and 12.6 µM,0.467 µM and 1.51 µM,1.24 µM and 3.18 µM,2.18 µM and 4.29 µM,10.3 µM and > 100 µM,0.27 µM and 1.34 µM,0.162 µM and 0.515 µM,2.36 µM and 7.9 µM,0.72 µM and 1.18 µM,31.3 µM and 12.9 µM,,
C=C1/C(=C\C=C2/CCC[C@]3(C)[C@@H]([C@H](C)CCCC(C)(C)O)CC[C@@H]23)C[C@@H](OC(=O)CBr)C[C@@H]1O,12.4 µM,26.6 µM,12.9,30.5,1.15 µM,0.4 µM,3.03 µM,1.95 µM,18.7 µM,0.212 µM,0.629 µM,9.75 µM,28.6 µM,1.78 µM,2.71 µM,19.3 µM,4.51 µM,18.8 µM,10.5,3.96
COc1cc2oc3cc(=O)cc4oc(-c5ccccc5)cc(c2c2c1CCC(c1ccccc1)O2)c43 (stereo not given),,> 100 µM,,> 100,,,65.5 µM,,> 100 µM,,> 100 µM,,> 100 µM,,,54.8 µM,,> 100 µM,66.2,> 100
c1cc2n(n1)CCN2,,> 10000 µM,,> 9550,,,> 10000 µM,,6590 µM,,4990 µM,,> 7500 µM,,,> 10000 µM,,5740 µM,> 10000,> 10000
CC(=O)C(=Cc1ccc(C=C(C(C)=O)C(C)=O)cc1)C(C)=O,,11.9 µM,,6.38,,,6.18 µM,,11.2 µM,,4.03 µM,,5.54 µM,,,8.49 µM,,4.24 µM,3.05,1.83
CN(C)CCNC(=O)c1cc([N+](=O)[O-])cc2c1Oc1ccccc1O2,,> 100 µM,,> 100,,,> 100 µM,,> 100 µM,,> 100 µM,,56.3 µM,,,69.6 µM,,> 100 µM,> 100,> 100
O=[N+]([O-])c1ccc2c(c1)Cc1cc(N=Cc3ccc4c(c3)OCO4)ccc1-2,,> 100 µM,,> 100,,,> 100 µM,,> 100 µM,,> 100 µM,,> 100 µM,,,> 100 µM,,> 100 µM,> 100,> 100
Cc1cc(NCCN(C(C)C)C(C)C)nc(/N=C(\N)Nc2ccc(Cl)c(C(F)(F)F)c2)n1,1.47 µM,3.04 µM,0.748,2,0.267 µM,0.674 µM,1.79 µM,1.67 µM,3.45 µM,0.179 µM,0.329 µM,0.208 µM,0.388 µM,0.532 µM,0.183 µM,0.361 µM,0.194 µM,0.4 µM,0.919,1.62
Cc1cc(Cl)ccc1Nc1nc(C(F)(F)F)ccc1C(=O)N/N=C/c1ccc(Cl)cc1,2.56 µM,13.1 µM,2.33,9.22,3.24 µM,2.08 µM,7.24 µM,2.16 µM,6.38 µM,1.7 µM,3.96 µM,2.18 µM,9.2 µM,2.15 µM,2.17 µM,9.26 µM,2.07 µM,,10.4,11
CNC(=O)c1cccc2cc(Oc3ccnc4cc(OCC5(N)CC5)c(OC)cc34)ccc12,12.1 µM,25.5 µM,10.7,27.6,6.73 µM,6.17 µM,19.7 µM,12.7 µM,31.9 µM,0.403 µM,6.61 µM,14.3 µM,32 µM,5.96 µM,17.8 µM,39.2 µM,9.43 µM,23.3 µM,21.1,20.5
N#CCCN(CCCN(CCCN(C(=O)Nc1ccccc1)c1ccccc1)C(=O)Nc1ccccc1)C(=O)Nc1ccccc1,> 100 µM,> 100 µM,> 100,> 100,,18.7 µM,> 100 µM,> 100 µM,> 100 µM,> 100 µM,> 100 µM,> 100 µM,> 100 µM,> 100 µM,> 100 µM,> 100 µM,,> 100 µM,> 8.75,> 100
CCC1CN2C(=N1)c1ccccc1-c1cc(Cl)ccc12 (stereo not given),2.31 µM,6.26 µM,2.97,8.87,2.01 µM,3.18 µM,12.5 µM,3.7 µM,18.4 µM,3.88 µM,14.8 µM,2.75 µM,7.77 µM,2.72 µM,3.52 µM,23 µM,3.18 µM,11.6 µM,7.11,15.5
COc1cccc(-n2nc(C)c3c(N/N=C(\C)c4ccncc4)ncnc32)c1,> 25 µM,> 25 µM,> 25,> 25,> 25 µM,> 25 µM,> 25 µM,> 25 µM,> 25 µM,22.8 µM,> 25 µM,> 25 µM,> 25 µM,> 25 µM,6.6 µM,> 25 µM,> 22.2 µM,> 25 µM,> 25,> 25
COc1c(O)cc2oc(-c3ccc(O)cc3)cc(=O)c2c1O,,> 100 µM,,> 100,,,> 100 µM,,> 100 µM,,> 100 µM,,> 100 µM,,,> 100 µM,,> 100 µM,> 100,> 100
O=CN/C=C/c1cccc(O)c1,,> 97.5 µM,,65.8,,,> 100 µM,,> 100 µM,,> 83 µM,,> 81.6 µM,,,98.7 µM,,> 83 µM,74.8,98.8

# Source: PubChem BioAssay (NCI)
